Results taken from patent publication US5597848A, “Benzenesulfonamide derivatives and use thereof” (Hokuriku Seiyaku Co., Ltd., priority 1992, dated 1997).

Target: T1, thromboxane A2 receptor (Cavia porcellus, UniProt A0A286Y4I8)
T1 construct: platelet-rich plasma; endogenous in cells; host or cells: guinea-pig platelets in platelet-rich plasma
T1 sequence (A0A286Y4I8 1-347): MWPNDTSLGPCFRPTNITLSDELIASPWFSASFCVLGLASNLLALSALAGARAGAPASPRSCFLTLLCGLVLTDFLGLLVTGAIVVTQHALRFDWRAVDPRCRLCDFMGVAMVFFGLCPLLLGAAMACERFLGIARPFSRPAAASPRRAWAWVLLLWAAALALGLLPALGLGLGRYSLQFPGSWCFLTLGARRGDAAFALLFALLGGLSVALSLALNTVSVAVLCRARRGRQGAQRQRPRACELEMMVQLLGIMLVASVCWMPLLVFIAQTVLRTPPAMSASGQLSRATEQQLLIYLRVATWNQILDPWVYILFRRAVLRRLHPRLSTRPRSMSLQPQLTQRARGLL
Test: Thromboxane A2 antagonistic effect: inhibition of U-46619-induced platelet aggregation in guinea-pig platelet-rich plasma
Assay type: cell-based, guinea-pigs
Conditions: guinea-pig PRP, U-46619 2 μg/ml, 2 min at 37° C.; read-out: IC50 (50% inhibition against platelet aggregation)
Description: Blood was collected from the abdominal aorta of guinea-pigs (about 400 g wt.) into 1/10 volume of 3.8% sodium citrate, and then platelet-rich plasma (PRP: 6×10^5 cells/μl) was obtained by centrifugation. A cuvette was filled with PRP 190 μl and set in an aggregometer (Hema Tracer I; Niko Bioscience). Incubation was carried out for 2 min. at 37° C. after the addition of 1 μl of dimethyl sulfoxide solution of test compounds. To the PRP, 10 μl of U-46619 (Cayman), a thromboxane A2 /prostaglandin H2 receptor agonist and potent platelet aggregation inducer, was added at the final concentration of 2 μg/ml, and platelet aggregation was measured by an aggregometer.

| SMILES | IC50 [nM] |
| --- | --- |
| CCC(NS(=O)(=O)c1ccc(Cl)cc1)c1ccc(CCCC(=O)O)cc1 (stereo not shown) [Example 64, 4-[4-[1-(4-Chlorophenylsulfonylamino)propyl]phenyl]butyric Acid] | 160 |
| CC(C)(C)CC(NS(=O)(=O)c1ccc(Cl)cc1)c1ccc(CCCC(=O)O)cc1 (stereo not shown) [Example 72, 4-[4-[1-(4-Chlorophenylsulfonylamino)-3,3-dimethylbutyl]phenyl]butyric Acid] | 320 |
| O=C(O)CCc1ccc(C(Cc2ccccc2)NS(=O)(=O)c2ccc(Cl)cc2)cc1 (stereo not shown) [Example 86, 3-[4-[1-(4-Chlorophenylsulfonylamino)-2-phenylethyl]phenyl]propionic Acid] | 250 |
| O=C(O)CCCc1ccc(C(Cc2ccccc2)NS(=O)(=O)c2ccc(F)cc2)cc1 (stereo not shown) [Example 88, 4-[4-[1-(4-Fluorophenylsulfonylamino)-2-phenylethyl]phenyl]butyric Acid] | 320 |
| O=C(O)CCCc1ccc(C(Cc2ccccc2)NS(=O)(=O)c2ccc(Br)cc2)cc1 (stereo not shown) [Example 89, 4-[4-[1-(4-Bromophenylsulfonylamino)-2-phenylethyl]phenyl]butyric Acid] | 32 |
| Cc1ccc(S(=O)(=O)NC(Cc2ccccc2)c2ccc(CCCC(=O)O)cc2)cc1 (stereo not shown) [Example 90, 4-[4-[1-(p-Tolylsulfonylamino)-2-phenylethyl]phenyl]butyric Acid] | 320 |
| COc1ccc(S(=O)(=O)NC(Cc2ccccc2)c2ccc(CCCC(=O)O)cc2)cc1 (stereo not shown) [Example 91, 4-[4-[1-(4-Methoxyphenylsulfonylamino)-2-phenylethyl]phenyl]butyric Acid] | 320 |
| O=C(O)CCCc1ccc(C(Cc2ccccc2F)NS(=O)(=O)c2ccc(Cl)cc2)cc1 (stereo not shown) [Example 93, 4-[4-[1-(4-Chlorophenylsulfonylamino)-2-(2-fluorophenyl)ethyl]phenyl]butyric Acid] | 320 |
| O=C(O)CCCc1ccc(C(CCCCc2ccccc2)NS(=O)(=O)c2ccc(Cl)cc2)cc1 (stereo not shown) [Example 115, 4-[4-[1-(4-Chlorophenylsulfonylamino)-5-phenylpentyl]phenyl]-butyric Acid] | 320 |

Now from value to molecule:

| IC50 [nM] | SMILES |
| --- | --- |
| 320 | CC(C)CC(NS(=O)(=O)c1ccc(Cl)cc1)c1ccc(CCCC(=O)O)cc1 (stereo not shown) [Example 70, 4-[4-[1-(4-Chlorophenylsulfonylamino)-3-methylbutyl]phenyl]butyric Acid] |
| 400 | O=C(O)CCCc1ccc(C(CCCCC2CCCCC2)NS(=O)(=O)c2ccc(Cl)cc2)cc1 (stereo not shown) [Example 82, 4-[4-[1-(4-Chlorophenylsulfonylamino)-5-cyclohexylpentyl]phenyl]butyric Acid] |
| 320 | O=C(O)CCCc1ccc(C(Cc2ccccc2)NS(=O)(=O)c2ccccc2)cc1 (stereo not shown) [Example 87, 4-[4-[2-phenyl-1-(phenylsulfonylamino)ethyl]phenyl]butyric Acid] |
| 320 | O=C(O)CCCCc1ccc(C(Cc2ccccc2)NS(=O)(=O)c2ccc(Cl)cc2)cc1 (stereo not shown) [Example 92, 5-[4-[1-(4-Chlorophenylsulfonylamino)-2-phenylethyl]phenyl]valeric Acid] |
| 63 | O=C(O)CCCc1ccc(C(Cc2cccc(F)c2)NS(=O)(=O)c2ccc(Cl)cc2)cc1 (stereo not shown) [Example 94, 4-[4-[1-(4-Chlorophenylsulfonylamino)-2-(3-fluorophenyl)ethyl]phenyl]butyric Acid] |
| 790 | CCCCCCCC(NS(=O)(=O)c1ccc(Cl)cc1)c1ccc(CCCC(=O)O)cc1 (stereo not shown) [Example 100, 4-[4-[1-(4-Chlorophenylsulfonylamino)octyl]phenyl]butyric Acid] |
| 320 | O=C(O)CCCc1ccc(C(CCCc2ccccc2)NS(=O)(=O)c2ccc(Cl)cc2)cc1 (stereo not shown) [Example 114, 4-[4-[1-(4-Chlorophenylsulfonylamino)-4-phenylbutyl]phenyl]butyric Acid] |
